PMC9000482, “Inhibition of Aldose Reductase by Ginsenoside Derivatives via a Specific Structure Activity Relationship with Kinetics Mechanism and Molecular Docking Study” (Molecules, 2022)
Where two headings read alike, the source gives them in different places. Marks after values point to notes of the source that are not given here.

Columns and labels:
[1] = test system: sorbitol accumulation in rat lens; experiment: Lens culture and intracellular sorbitol measurement (ex vivo); format: cell-based, Sprague-Dawley rats; conditions: 25 mM glucose, 6 days, sample 5 μg/mL, mean ± SD (n = 3); for inhibition at 5 µg/mL: Rattus norvegicus, 144 h
[2] = biological target: T1, rat lens aldose reductase (RLAR) (Rattus norvegicus, UniProt P07943); experiment: RLAR inhibitory activity assay (rat lens homogenate, DL-glyceraldehyde substrate); format: biochemical; conditions: for RLAR inhibitory activity (in words): at the concentrations tested
T1 construct: from tissue; host or cells: lens of Sprague-Dawley rats (supernatant of homogenate)
Description: A rat lens homogenate was prepared with minor modifications according to the method reported by Hayman et al.. Briefly, the lenses were removed from the eyes of Sprague-Dawley rats weighing 250–280 g. They were homogenized in sodium phosphate buffer (pH 6.2) that was prepared with dibasic sodium phosphate (Na2HPO4∙H2O, 0.66 g) and monobasic sodium phosphate (NaH2PO4∙H2O, 1.27 g) in 100 mL of double-distilled H2O. The homogenate was clarified by centrifugation at 10,000 rpm at 4 °C for 20 min and the resultant supernatant was frozen until use. A crude AR homogenate with a specific activity of 6.5 U/mg was used in all enzyme inhibition evaluations. The reaction solution consisted of 620 µL of 100 mM sodium phosphate buffer (pH 6.2), 90 µL of AR homogenate, 90 µL of 1.6 mM NADPH, and 9 µL of sample, while the substrate included 90 µL of 50 mM DL-glyceraldehyde. […] AR activity was determined by measuring the decrease in NADPH absorption at 340 nm over a 4 min period on an Ultrospec®2100pro UV/Visible spectrophotometer. SWIFT II Applications software (Amersham Biosciences, NJ, USA) was used for all data analyses. The inhibition percentage (%) was calculated as follows in Equation (1):[1 − (∆Asample/min − ∆Ablank/min)/(∆Acontrol/min − ∆Ablank/min)] × 100(1) in which ∆Asample/min represents the test sample and substrate’s reduction in absorbance over 4 min, and ∆A control/min represents the same reduction in absorbance, but with 100% DMSO (dimethyl sulfoxide) rather than the test sample.

[3] = biological target: T2, human recombinant aldose reductase (HRAR) (Homo sapiens, UniProt P15121); experiment: HRAR inhibition assay (DL-glyceraldehyde substrate); format: biochemical; conditions: for HRAR inhibitory activity (in words): at the concentrations tested
T2 construct: purchased Wako Chemicals (Osaka, Japan)
Description: HRAR inhibition was studied according to Nishimura et al.. AR action was studied by measuring the reduction in NADPH absorption at 340 nm over a period of 1 min on a UV/visible spectrophotometer (Ultrospec®2100pro, Biochrom, Holliston, MA, USA). For HRAR inhibition, the HRAR enzyme (0.4 units), was used in all enzyme inhibition evaluations. […] The inhibition percentage (%) was measured as designated in the RLAR assay. The DA sample/min value characterizes the decrease in absorbance for 1 min with the test samples and substrate. The ability of each sample to inhibit HRAR was observed as an IC50 value (µM) and measured from the log-dose inhibition curve.

[4] = biological target: T1, rat lens aldose reductase (RLAR); experiment: Enzyme kinetics of RLAR inhibition (Lineweaver-Burk and Dixon plots); format: biochemical
Description: Enzyme inhibition with different concentrations ([…]) was assessed by monitoring the effects of different concentrations of the substrate. The following concentrations of test ginsenosides were used in the RLAR kinetics analysis: 0, 2, 10, and 50 µM for protopanaxadiol; 0, 0.5, 2.5, and 10 µM for (20S) ginsenoside Rg3; 0, 0.5, 2.5, and 10 µM for (20R) ginsenoside Rg3; 0, 0.1, 0.5, and 2.5 µM for ginsenoside Rh2; 0, 2, 10, and 50 µM for protopanaxatriol; 0, 0.8, 4, and 20 µM for ginsenoside Rf; 0, 0.8, 4, and 20 µM for (20S) ginsenoside Rg2, and 0, 0.5, 2.5, and 10 µM for ginsenoside Rh1. Using Lineweaver-Burk double reciprocal plots, the inhibition type was determined using various concentrations of DL-glyceraldehyde (5, 10, and 20 mM) for HRAR as a substrate in the presence of different concentrations of the active test ginsenosides. The concentrations of test ginsenosides in the HRAR kinetics analysis were as follows: 0, 0.1, 0.5, and 2.5 µM for protopanaxadiol; 0, 0.5, 2, and 10 µM for (20S) ginsenoside Rg3; 0, 1, 5, and 20 µM for (20R) ginsenoside Rg3; 0, 0.5, 2.5, and 10 µM for ginsenoside Rh2; 0, 0.1, 0.5, and 2.5 µM for compound K; 0, 1, 5, and 10 µM for protopanaxatriol; 0, 0.5, 4, and 20 µM for (20R) ginsenoside Rg2, and 0, 0.2, 2, and 5 µM for ginsenoside Rh1. The Dixon plot is a graphical method [1/enzyme velocity (1/V)] against inhibitor concentration [I] used to determine the type of enzyme inhibition; it was used to identify the dissociation or inhibition constant (Ki) for the enzyme-inhibitor complex. Dixon plots (single reciprocal plots) for RLAR and HRAR inhibition were obtained in the presence of 100, 50, and 10 mM RLAR, and 20, 10, and 5 mM HRAR DL-glyceraldehyde substrate. Thus, the type of enzyme inhibition was determined by interpreting the Lineweaver-Burk plots, and the inhibition constants (Ki) were determined by interpreting the Dixon plots.

[5] = rat lens homogenate, substrate DL-glyceraldehyde, mean ± S.E.M. of triplicate experiments, read-out: RLAR IC50
[6] = substrate DL-glyceraldehyde, mean ± S.E.M. of triplicate experiments, read-out: HRAR IC50

Structure (SMILES) | IC50 [2, 5] [µM] | IC50 [3, 6] [µM] | also measured
O=c1c(O)c(-c2ccc(O)c(O)c2)oc2cc(O)cc(O)c12 [Quercetin, reference compound] | – | – | Sorbitol Content (mg)/Lens Wet Weight (g) [1]: 0.22 ± 0.01 ^a mg/g; inhibition at 5 µg/mL [1]: 87.2 ± 3.91%
CC(C)=CCC[C@](C)(O[C@@H]1O[C@H](CO)[C@@H](O)[C@H](O)[C@H]1O)[C@H]1CC[C@]2(C)[C@@H]1[C@H](O)C[C@@H]1[C@@]3(C)CC[C@H](O)C(C)(C)[C@@H]3[C@@H](O[C@@H]3O[C@H](CO)[C@@H](O)[C@H](O)[C@H]3O)C[C@]12C [Ginsenoside Rg1] | 49.5 ± 1.88 | 27.6 ± 2.12 | –
CC(=O)OC[C@H]1O[C@@H](O[C@H]2[C@H](O[C@H]3CC[C@@]4(C)C(CC[C@]5(C)C4C[C@@H](O)[C@@H]4C([C@](C)(CCC=C(C)C)O[C@@H]6O[C@H](CO[C@@H]7O[C@@H](CO)[C@H](O)[C@H]7O)[C@@H](O)[C@H](O)[C@H]6O)CC[C@]45C)C3(C)C)O[C@H](CO)[C@@H](O)[C@@H]2O)[C@H](O)[C@@H](O)[C@@H]1O (stereo partly drawn) [Ginsenoside Rs2] | 149 ± 4.22 | > 100 | HRAR inhibitory activity (in words) [3]: inactive
CC(C)=CCC[C@](C)(O[C@@H]1O[C@H](CO[C@@H]2OC[C@H](O)[C@H](O)[C@H]2O)[C@@H](O)[C@H](O)[C@H]1O)[C@H]1CC[C@]2(C)[C@@H]1[C@H](O)C[C@@H]1[C@@]3(C)CC[C@H](O[C@@H]4O[C@H](CO)[C@@H](O)[C@H](O)[C@H]4O[C@@H]4O[C@H](CO)[C@@H](O)[C@H](O)[C@H]4O)C(C)(C)[C@@H]3CC[C@]12C [Ginsenoside Rb2] | 121 ± 3.43 | > 100 | HRAR inhibitory activity (in words) [3]: inactive
CC(C)=CCC[C@](C)(O[C@@H]1O[C@H](CO)[C@@H](O)[C@H](O)[C@H]1O)[C@H]1CC[C@]2(C)[C@@H]1[C@H](O)C[C@@H]1[C@@]3(C)CC[C@H](O[C@@H]4O[C@H](CO)[C@@H](O)[C@H](O)[C@H]4O[C@@H]4O[C@H](CO)[C@@H](O)[C@H](O)[C@H]4O)C(C)(C)[C@@H]3CC[C@]12C [Ginsenoside Rd] | 89.6 ± 2.99 | 37.5 ± 1.33 | –
CC(=O)OC[C@H]1O[C@@H](O[C@H]2[C@H](O[C@H]3CC[C@@]4(C)C(CC[C@]5(C)C4C[C@@H](O)[C@@H]4C([C@](C)(CCC=C(C)C)O[C@@H]6O[C@H](CO[C@@H]7OC[C@H](O)[C@H](O)[C@H]7O)[C@@H](O)[C@H](O)[C@H]6O)CC[C@]45C)C3(C)C)O[C@H](CO)[C@@H](O)[C@@H]2O)[C@H](O)[C@@H](O)[C@@H]1O (stereo partly drawn) [Ginsenoside Rs1] | 143 ± 3.77 | > 100 | HRAR inhibitory activity (in words) [3]: inactive
CC(C)=CCC[C@](C)(O[C@@H]1O[C@H](CO[C@@H]2OC[C@@H](O)[C@H](O)[C@H]2O)[C@@H](O)[C@H](O)[C@H]1O)[C@H]1CC[C@]2(C)[C@@H]1[C@H](O)C[C@@H]1[C@@]3(C)CC[C@H](O[C@@H]4O[C@H](CO)[C@@H](O)[C@H](O)[C@H]4O[C@@H]4O[C@H](CO)[C@@H](O)[C@H](O)[C@H]4O)C(C)(C)[C@@H]3CC[C@]12C [Ginsenoside Rb3] | 117 ± 6.89 | 79 ± 4.55 | –
CC(C)=CCC[C@](C)(O[C@@H]1O[C@H](CO[C@@H]2OC[C@H](O[C@@H]3OC[C@@H](O)[C@H](O)[C@H]3O)[C@H](O)[C@H]2O)[C@@H](O)[C@H](O)[C@H]1O)[C@H]1CC[C@]2(C)[C@@H]1[C@H](O)C[C@@H]1[C@@]3(C)CC[C@H](O[C@@H]4O[C@H](CO)[C@@H](O)[C@H](O)[C@H]4O[C@@H]4O[C@H](CO)[C@@H](O)[C@H](O)[C@H]4O)C(C)(C)[C@@H]3CC[C@]12C [Ginsenoside Ra1] | > 200 | 75.6 ± 4.33 | RLAR inhibitory activity (in words) [2]: inactive
CC(C)=CCC[C@](C)(O)[C@H]1CC[C@]2(C)[C@@H]1[C@H](O)C[C@@H]1[C@@]3(C)CC[C@H](O)C(C)(C)[C@@H]3[C@@H](O[C@@H]3O[C@H](CO)[C@@H](O)[C@H](O)[C@H]3O[C@@H]3O[C@H](CO)[C@@H](O)[C@H](O)[C@H]3O)C[C@]12C [Ginsenoside Rf] | 11.3 ± 1.49 | 19.5 ± 1.55 | Sorbitol Content (mg)/Lens Wet Weight (g) [1]: 0.28 ± 0.01 ^a mg/g; inhibition at 5 µg/mL [1]: 83.7 ± 4.88%; RLAR Kiu (binding constant of inhibitor with enzyme-substrate complex) ([4]; Dixon plots): 18.60 µM; Ki ([4]; Dixon plots, read-out: RLAR Kic (binding constant of inhibitor with free enzyme)): 11.2 µM; RLAR Mode of Inhibition ([4]; Lineweaver-Burk plot): Mixed type
CC(C)=CC/C=C(\C)[C@H]1CC[C@]2(C)[C@@H]1[C@H](O)C[C@@H]1[C@@]3(C)CC[C@H](O[C@@H]4O[C@H](CO)[C@@H](O)[C@H](O)[C@H]4O[C@@H]4O[C@H](CO)[C@@H](O)[C@H](O)[C@H]4O)C(C)(C)[C@@H]3CC[C@]12C [Ginsenoside Rg5] | – | – | IC50 [2]: 54.5 ± 1.22 µM; IC50 [3]: 38.6 ± 2.91 µM
CC(C)=CCC[C@](C)(O[C@@H]1O[C@H](CO[C@@H]2O[C@@H](CO)[C@H](O)[C@H]2O)[C@@H](O)[C@H](O)[C@H]1O)[C@H]1CC[C@]2(C)[C@@H]1[C@H](O)C[C@@H]1[C@@]3(C)CC[C@H](O[C@@H]4O[C@H](CO)[C@@H](O)[C@H](O)[C@H]4O[C@@H]4O[C@H](CO)[C@@H](O)[C@H](O)[C@H]4O)C(C)(C)[C@@H]3CC[C@]12C [Ginsenoside Rc] | > 200 | 56.6 ± 2.19 | RLAR inhibitory activity (in words) [2]: inactive
CC(C)=CCC[C@](C)(O[C@@H]1O[C@H](CO)[C@@H](O)[C@H](O)[C@H]1O)[C@H]1CC[C@]2(C)[C@@H]1[C@H](O)C[C@@H]1[C@@]3(C)CC[C@H](O)C(C)(C)[C@@H]3[C@@H](O[C@@H]3O[C@H](CO)[C@@H](O)[C@H](O)[C@H]3O[C@@H]3O[C@@H](C)[C@H](O)[C@@H](O)[C@H]3O)C[C@]12C [Ginsenoside Re] | 81.3 ± 2.18 | 43.4 ± 3.11 | –
O=C(O)Cn1c(=O)n(Cc2ccc(Br)cc2F)c(=O)c2ccc(Cl)cc21 [Zenaresta, Zenarestat, reference compound] | – | – | IC50 [3]: 0.69 ± 0.11 µM
CC(C)=CCC[C@](C)(O[C@@H]1O[C@H](CO[C@@H]2O[C@H](CO)[C@@H](O)[C@H](O)[C@H]2O)[C@@H](O)[C@H](O)[C@H]1O)[C@H]1CC[C@]2(C)[C@@H]1[C@H](O)C[C@@H]1[C@@]3(C)CC[C@H](O[C@@H]4O[C@H](CO)[C@@H](O)[C@H](O)[C@H]4O[C@@H]4O[C@H](CO)[C@@H](O)[C@H](O)[C@H]4O)C(C)(C)[C@@H]3CC[C@]12C [Ginsenoside Rb1] | 103 ± 7.45 | 93.3 ± 5.76 | –
CC(C)=CCC[C@](C)(O[C@@H]1O[C@H](CO[C@@H]2O[C@@H](CO)[C@H](O)[C@H]2O[C@@H]2OC[C@@H](O)[C@H](O)[C@H]2O)[C@@H](O)[C@H](O)[C@H]1O)[C@H]1CC[C@]2(C)[C@@H]1[C@H](O)C[C@@H]1[C@@]3(C)CC[C@H](O[C@@H]4O[C@H](CO)[C@@H](O)[C@H](O)[C@H]4O[C@@H]4O[C@H](CO)[C@@H](O)[C@H](O)[C@H]4O)C(C)(C)[C@@H]3CC[C@]12C [Ginsenoside Ra2] | 178 ± 7.39 | 82.43 ± 0.44 | –
